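Where inhibition never reached the appropriate level, the endpoint shown equals the highest concentration tested. Otherwise, values were interpolated linearly from a five-concentration, 48-hour dose response in 96-well plates. GI50 marks 50% less growth.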 Activity calls are given as the source filed them. Rule as the data show it: active = GI50 up to about 1.1 µM and inactive = higher.
Legend:
Experiment in all cases: NCI-60 cell line screen, 48 h
[1] = system: M14
[2] = system: RPMI-8226
[3] = system: T47D
[4] = system: COLO 205
[5] = system: SF-539
[6] = system: SK-MEL-2
[7] = system: TK-10
[8] = system: CAKI-1
[9] = system: 786-0
[10] = system: LOX IMVI
[11] = system: SN12C
[12] = system: PC-3
[13] = system: NCI/ADR-RES
[14] = system: UO-31
[15] = system: NCI-H522
[16] = system: ACHN
[17] = system: NCI-H23
[18] = system: MDA-MB-435
[19] = system: RXF 393

Measured: GI50

Nc1nc(N)nc(CCCc2nc(N)nc(N)n2)n1
inactive: [1] > 100 µM | [2] > 100 µM | [3] > 100 µM | [4] > 100 µM | [5] > 100 µM | [6] > 100 µM | [7] > 100 µM | [8] > 100 µM | [9] > 100 µM | [10] > 100 µM | [11] > 100 µM | [12] > 100 µM | [13] > 100 µM | [14] > 100 µM | [15] > 100 µM | [16] > 100 µM | [17] > 100 µM | [18] > 100 µM | [19] > 100 µM

CC(C)(C)c1cc2c(O)c(c1)Cc1cc(C(C#N)(Cc3ccc4ccccc4c3)Cc3ccc4ccccc4c3)cc(c1O)Cc1cc(C(C)(C)C)cc(c1O)Cc1cc(C(C#N)(Cc3ccc4ccccc4c3)Cc3ccc4ccccc4c3)cc(c1O)C2
inactive: [1] > 100 µM | [2] > 100 µM | [3] > 100 µM | [4] > 100 µM | [5] > 100 µM | [6] > 100 µM | [7] > 100 µM | [8] > 100 µM | [9] > 100 µM | [10] > 100 µM | [11] > 100 µM | [12] > 100 µM | [13] > 100 µM | [14] > 100 µM | [15] > 100 µM | [16] > 100 µM | [17] > 100 µM | [18] > 100 µM | [19] > 100 µM

CC[C@@H]1CN(C)[C@H]2Cc3c([nH]c4ccccc34)C(=O)C[C@H]1C2C(=O)OC (some centres not stated)
inactive: [1] > 100 µM | [2] > 88.5 µM | [3] > 100 µM | [4] > 100 µM | [5] > 100 µM | [6] > 100 µM | [7] > 58.9 µM | [8] > 100 µM | [9] > 100 µM | [10] > 100 µM | [11] > 100 µM | [12] > 100 µM | [13] > 95.7 µM | [14] > 100 µM | [15] > 100 µM | [16] > 100 µM | [17] > 100 µM | [18] > 100 µM | [19] > 77.8 µM

CC1(C)CC(=O)C2(CC(CSc3ccccc3)C(CS(=O)(=O)c3ccccc3)C2)C(=O)C1 (configuration not stated)
inactive: [1] > 100 µM | [2] 66.4 µM | [3] 45.5 µM | [4] > 100 µM | [5] > 100 µM | [6] > 100 µM | [7] > 100 µM | [8] > 100 µM | [9] > 100 µM | [10] > 100 µM | [11] > 100 µM | [12] 30.8 µM | [13] > 100 µM | [14] > 100 µM | [15] > 100 µM | [16] > 100 µM | [17] > 100 µM | [18] > 100 µM | [19] > 100 µM

O=C1NC(NNc2ccccc2)=N/C1=C\c1ccccc1O
inactive: [1] 97.1 µM | [2] 81.5 µM | [3] 34.1 µM | [4] > 100 µM | [5] 77.6 µM | [6] 75.2 µM | [7] 67.3 µM | [8] 63.1 µM | [9] 62.5 µM | [10] > 100 µM | [11] 73.6 µM | [12] 33.6 µM | [13] 29.6 µM | [14] > 100 µM | [15] 80.4 µM | [16] 49.1 µM | [17] 39.1 µM | [18] 71.1 µM | [19] 40 µM

CCOC(=O)/C(=C\c1ccc(F)cc1)C(C)=O
inactive: [1] 22.9 µM | [2] 21.8 µM | [3] 21.8 µM | [4] 36 µM | [5] 34 µM | [6] 21.2 µM | [7] 21.6 µM | [8] 24.3 µM | [9] 22.3 µM | [10] 17.5 µM | [11] 63 µM | [12] 17.1 µM | [13] 35.6 µM | [14] 16.2 µM | [15] 14.3 µM | [16] 21.6 µM | [17] 21.2 µM | [18] 30.1 µM | [19] 17 µM

CCOc1ccc(NC(=O)C(=O)C2C(=O)Nc3ccccc3[S+]2[O-])cc1 (configuration not stated)
inactive: [1] > 100 µM | [2] > 100 µM | [3] > 100 µM | [5] > 100 µM | [6] > 100 µM | [7] > 100 µM | [8] > 100 µM | [9] > 100 µM | [10] > 100 µM | [11] > 100 µM | [12] > 100 µM | [13] > 100 µM | [14] > 100 µM | [15] > 100 µM | [16] > 100 µM | [17] > 100 µM | [18] > 100 µM | [19] > 100 µM

— ChEMBL document CHEMBL1201862, “PubChem BioAssay data set” (2004)
